Patent US4225607A, “Pharmaceutical composition containing a xanthine derivative” (Wulfing; Johann A., priority 1979, dated 1980)
“And” between values parts separate entries of the source, which are not always exact repeats. Equal entries are not always repeated. Values belong to the molecule of their own block, whether it stands above or below them.

Columns and labels:
skeletal muscle = assay: Oxygen tension (pO2) in skeletal muscle (m. gastrocnemius), femoral artery ligation, Pt-needle electrodes; format: in vivo, cat; conditions: for effect of Compound A, Δ pO2: 125 μg/kg i.v.
Experimental: Cats of either sex were anaesthetized with urethane/chloralose (120/60 mg/kg i.p.). In the course of the experiments, pentobarbital was injected intravenously (V. antebrachii ceph.) via a plastic tube. The intraduodenal (i.d.) application of compound was conducted by means of a plastic catheter, which was inserted into the duodenum.
pO2 was measured polarographically using Pt-needle electrodes (modified according to Baumgartl and Lubbers, 1973). The reference electrode, an Ag/AgCl system was sputtered on the glass mantle of the cathode, or it was a separate electrode. The cathode was coated with a polystyrol and a collodium membrane. A constant voltage supply provided a polarizing voltage between 600 and 800 mV. The reducing current was measured by a nano-ampere amplifying meter. The cathode was inserted in the tissue by means of a motor-driven micromanipulator.
A pO2 -electrode was inserted in the muscle tissue (m. gastrocnemius) of both hindlegs of an anaesthetized cat. After recording the pO2 of the normal perfused muscle, the blood flow to one measuring site was restricted by ligating the femoral artery. The pO2 dropped steeply and the tissue became ischaemic. After a few minutes, the pO2 increased and then decreased again. The values were constant after 30 to 60 min. After having reached a constant level of pO2, the vehicle was given, followed by the test substance.
The mean value and the standard deviation were calculated, in order to check the significance of the effect.

[1] = Solubility in water / aqueous media; format: physicochemical
[2] = test system: ischaemic skeletal muscle; assay: Contractility of ischaemic skeletal (calf) muscle, direct stimulation, femoral artery graded occlusion; format: in vivo; conditions: cat; for changes in contractility and pO2 in comparison with Compound A (in words): 5-32 mg/kg vs Compound A at 125 μg/kg; for dose range of activity: contractility and pO2 of ischaemic skeletal muscle
Experimental: Cats of either sex were anaesthetized with urethane/chloralose (120/60 mg/kg i.p.). […] The intraduodenal (i.d.) application of compound was conducted by means of a plastic catheter, which was inserted into the duodenum.
Cats of either sex were anaesthetized as for pO2 measurement. After dissection of the skin of the calf muscles, the sciatic nerve was cut about 3 cm proximal to the knee. The tendon of the calf muscles was cut and connected with an isometric force transducer (SWEMA, SG 3). In order to maintain constant differences and a resting tension of 100 p, the hind limb was fixed at the tibia by means of a clamp. Direct stimulation of the muscles consisted of square wave pulses of 4 msec duration at a frequency of 2 Hz and at a voltage of 50 V. In order to keep the muscles wet and at a normal temperature, the muscles were continuously superfused by means of a NaCl-solution (0.9%, 38° C.). Femoral blood flow was restricted by a graded occlusion of the artery leading to a reduction of contractility by ca. 30%. After having reached a constant level of the contraction force, the vehicle (NaCl and Methocel, respectively) was injected, followed by the test substance.

[3] = in vivo; cited from earlier work
[4] = Blood pressure (BP), initial decrease phase and second increase phase; format: in vivo, cat; conditions: Table 3, 125 μg/kg i.v.
LD50 in mice per oral = conditions: mouse, in vivo

water solubility (in words) ([1]; water, reason for NT i.v.): low water solubility
Structure (SMILES): CCCCn1c(=O)c2c(ncn2CC(=O)CC)n(CCCC)c1=O [Compound C, 1,3-di-n-butyl-7-(2-oxobutyl)xanthine]
pO2 (increase) (skeletal muscle; Table 1, ischaemic muscle, cat, i.d., 32 mg/kg): 6 mmHg
changes in contractility and pO2 in comparison with Compound A (in words) [2]: less pronounced in comparison with Compound A
contractility (% initial value) ([2]; Table 1, ischaemic muscle, i.d., 12.5 mg/kg): 22 % initial value
dose range of activity [2]: 5 to 32 mg/kg

Structure (SMILES): CC(=O)CCCCn1c(=O)c2c(ncn2C)n(C)c1=O [Compound B, pentoxyphylline]
Mean effect of Compound B compared to Compound A (skeletal muscle; Table 2, B at 5 mg/kg vs A at 125 μg/kg, mean): 21.3%
effect of Compound B, Δ pO2 (skeletal muscle; Table 2, control hind limb, 5 mg/kg i.v., individual cats, 5 mg/kg): 0.3 Torr
changes in contractility and pO2 in comparison with Compound A (in words) [2]: less pronounced in comparison with Compound A
dose range of activity [2]: 5 to 32 mg/kg
oral toxicity (in words) [3]: low oral toxicity

Structure (SMILES): CCCCn1c(=O)c2c(ncn2CC(C)=O)n(CCCC)c1=O [Compound A, 1,3-di-n-butyl-7-(2-oxopropyl)xanthine]
effect of Compound A, Δ pO2 (skeletal muscle; Table 2, control hind limb, individual cats): 3.8 Torr and 3.5 Torr and 3.4 Torr
effect of Compound A, Δ pO2 (skeletal muscle; Table 2, hind limb with art. ligation, individual cats): 6.2 Torr and 7.3 Torr and 5.2 Torr and 5.6 Torr
pO2 of ischaemic skeletal muscle (in words) (skeletal muscle; cat): distinct increase
solubility in aqueous media (in words) ([1]; aqueous media): only sparingly soluble in aqueous media
contractility of ischaemic skeletal muscle (in words) [2]: distinct increase
dose range of activity [2]: 0.05 to 0.125 mg/kg
t, time interval to reach initial values, second phase BP increase [4]: 32 min
LD50 (LD50 in mice per oral): > 1000 mg/kg
